Results published in patent US20040077656A1, “Quinolines and nitrogenated derivatives thereof substituted in 4-position by a piperazine-containing moiety and their use as antibacterial agents” (priority 2000, published 2004).
Counter-ions that a name gives are not always drawn. Like-named read-outs stand apart in the source and are kept apart here.

System: S. aureus Oxford, S. aureus WCUH29, S. pneumoniae 1629, S. pneumoniae N1387, S. pneumoniae ERY 2
Test: MIC of test compounds against various organisms
Type: cell-based
Protocol: The MIC (μg/ml) of test compounds against various organisms was determined: S. aureus Oxford, S. aureus WCUH29, S. pneumoniae 1629, S. pneumoniae N1387, S. pneumoniae ERY 2.

| SMILES | MIC (against one or more of S. aureus Oxford, S. aureus WCUH29, S. pneumoniae 1629, S. pneumoniae N1387, S. pneumoniae ERY 2, read-out: MIC) | MIC |
| --- | --- | --- |
| COc1ccc2nccc([C@@H](O)CN3CCN(CCNC(=O)c4cccs4)CC3)c2c1 [Example 7, Thiophene-2-carboxylic acid (2-{14[(R)-2-hydroxy-2-(6-methoxy-quinolin-4-yl)-ethyl]-piperazin-1-yl}-ethyl)-amide Dioxalate Salt] | < 1 µg/mL | – |
| COc1ccc2nccc([C@@H](O)CN3CCN(CCCCc4ccccc4)CC3)c2c1 [Example 12, (R)-1-(6-Methoxy-quinolin-4-yl)-2-[4-(4-phenyl-butyl)piperazin-1-yl]-ethanol Dioxalate] | – | < 1 µg/mL |
